Assay: solvent given as SMILES

In the case of `CC(=O)c1ccc(/N=N/c2ccc(Nc3ccccc3)cc2)cc1`, the absorption maximum (in C1CCOC1) is reported as 438 nm, the absorption maximum (in CC#N) is reported as 432 nm and the absorption maximum (in CC(=O)O) is reported as 544 nm. The absorption maximum (in CN(C)C=O) was 452 nm, the absorption maximum (in CO) was 443 nm and the absorption maximum (in CS(C)=O) was 459 nm. For the same molecule, the absorption maximum (in Cc1ccccc1) was 429 nm, the absorption maximum (in ClC(Cl)Cl) was 427 nm and the absorption maximum (in ClCCl) was 432 nm.
Molecule `O=c1cc(COc2ccc(I)cc2)c2c(ccc3ccccc32)o1` has an absorption maximum (in C1CCOC1) of 349 nm, an absorption maximum (in C1COCCO1) of 348 nm and an absorption maximum (in CC#N) of 348 nm. For the same molecule, the absorption maximum (in CC(C)=O) was 349 nm, the absorption maximum (in CCCCO) was 350 nm and the absorption maximum (in CCCO) was 350 nm. For the same molecule, the absorption maximum (in CCO) was 350 nm, the absorption maximum (in CCOC(C)=O) was 348 nm and the absorption maximum (in CN(C)C=O) was 350 nm. For the same molecule, the absorption maximum (in CO) was 348 nm, the absorption maximum (in Cc1ccccc1) was 350 nm and the absorption maximum (in ClCCl) was 349 nm.
For `Cc1ccc(-n2c(C)ccc2C)cc1`, the absorption maximum (in CC#N) was 234 nm and the absorption maximum (in CCCCCC) was 238 nm.
Molecule `N#Cc1ccc(C[C@H](N)C(=O)O)cc1` has an absorption maximum (in C1CCOC1) of 236.81 nm, an absorption maximum (in CCO) of 233.58 nm and an absorption maximum (in O) of 233.33 nm.
`CCCCCCCCCCCCN1C(=O)c2ccc3c4ccc5c6c(ccc(c7ccc(c2c37)C1=O)c64)C(=O)NC5=O` gave an absorption maximum (in CN(C)C=O) of 522 nm.
`CCN(CC)c1ccc(-c2nc3c(c4c2-c2ccccc2CC4)-c2ccccc2CC3)cc1` gave an absorption maximum (in C1CCOC1) of 357 nm, an absorption maximum (in CC#N) of 360 nm and an absorption maximum (in CCCCCC) of 355 nm. The absorption maximum (in CCOC(C)=O) was 346 nm, the absorption maximum (in CO) was 352 nm and the absorption maximum (in CS(C)=O) was 361 nm. For the same molecule, the absorption maximum (in Cc1ccccc1) was 359 nm and the absorption maximum (in ClCCl) was 357 nm.
Molecule `CCCCCCOc1cc(C=C2C(=O)c3ccccc3C2=O)c(OCCCCCC)cc1C=C1C(=O)c2ccccc2C1=O` has an absorption maximum (in ClCCl) of 512 nm.
Molecule `CC(C)(C)[Si](C)(C)C#Cc1c2c(=O)c3ccccc3c2c(C#C[Si](C)(C)C(C)(C)C)c2c(=O)c3ccccc3c12` has an absorption maximum (in ClC(Cl)Cl) of 526 nm.
`N#Cc1ccc(N/N=C/c2ccc3ccccc3c2O)cc1` gave an absorption maximum (in CC#N) of 380 nm, an absorption maximum (in CCCCCC) of 384 nm and an absorption maximum (in CO) of 380 nm. For the same molecule, the absorption maximum (in CS(C)=O) was 390 nm and the absorption maximum (in ClC(Cl)Cl) was 384 nm.
In the case of `Cc1cc(-c2cccc3ccccc23)cc(C)[o+]1`, the absorption maximum (in ClCCl) is reported as 438 nm.
Work on `c1cc2c3c(cccc3c1)-c1c-2ccc2ccc3ccccc3c12` yielded an absorption maximum (in CCCCCCC) of 408 nm.
`Cc1cccn2c1cc1c3ccccc3nc(-c3ccco3)c12` showed an absorption maximum (in CS(C)=O) of 400 nm.
Molecule `CCCCC(CC)Cn1c2cc(C#N)c(-c3ccc(N(c4ccccc4)c4ccccc4)cc3)cc2c2cc(-c3ccc(N(c4ccccc4)c4ccccc4)cc3)c(C#N)cc21` (stereo not given) has an absorption maximum (in ClCCl) of 420 nm.
With `COC(=O)c1nc2c(N)nc(N(C)C)nc2n1Cc1ccccc1` the absorption maximum (in C1COCCO1) was 340 nm, the absorption maximum (in CC#N) was 342 nm and the absorption maximum (in CO) was 345 nm. For the same molecule, the absorption maximum (in ClCCl) was 338 nm.
In the case of `C(=C\N1CCCC1)/c1nc2ccccc2nc1-c1ccccc1`, the absorption maximum (in CC#N) is reported as 438 nm.
`Cc1cc(C)c(B(c2c(C)cc(C)cc2C)c2c(C)cc(-n3c4ccc(N(c5ccccc5)c5ccccc5)cc4c4cc(N(c5ccccc5)c5ccccc5)ccc43)cc2C)c(C)c1` showed an absorption maximum (in Cc1ccccc1) of 387 nm.
With `CN(C)c1ccc2cc3ccc(N(C)C)cc3nc2c1` the absorption maximum (in O) was 500 nm.
With `CCCN1C(=O)c2c3c(c4c(c2C1=O)CCc1cc(-c2ccc(N(C)C)cc2)c(OC)cc1-4)-c1cc(OC)c(-c2ccc(N(C)C)cc2)cc1CC3` the absorption maximum (in C1CCCCC1) was 404 nm, the absorption maximum (in C1CCOC1) was 409 nm and the absorption maximum (in CCOC(C)=O) was 407 nm. For the same molecule, the absorption maximum (in Cc1ccccc1) was 412 nm.
With `C[SiH](C)c1ccc([SiH](C)C)c2ccccc12` the absorption maximum (in C1CCCCC1) was 300 nm.
In the case of `N#Cc1ccc(/C=C/C(F)(F)F)c(N)c1`, the absorption maximum (in C1CCOC1) is reported as 367 nm.
Molecule `F[B-]1(F)OC(c2ccc3ccccc3c2)=CC(c2ccc3ccccc3c2)=[O+]1` has an absorption maximum (in CC#N) of 419 nm and an absorption maximum (in ClC(Cl)(Cl)Cl) of 412 nm.
Molecule `N#C/C(=C\c1ccc(/C=C/c2ccc(N(c3ccccc3)c3ccccc3)cc2)s1)C(=O)O` has an absorption maximum (in ClCCl) of 490 nm.
`CCCCN1C(=O)c2cccc3c(C#CC#Cc4ccc5c6c(cccc46)C(=O)N(CCCC)C5=O)ccc(c23)C1=O` showed an absorption maximum (in ClCCl) of 372 nm.
`c1ccc(C2=C(c3ccccn3)[Si](c3ccccc3)(c3ccccc3)c3ccccc32)cc1` gave an absorption maximum (in ClCCl) of 339 nm.
For `CN(C)c1ccc(C#Cc2ccccc2)cc1`, the absorption maximum (in C1CCCCC1) was 316.9 nm, the absorption maximum (in C1CCOC1) was 328.8 nm and the absorption maximum (in C1COCCO1) was 326.61 nm. It also gave an absorption maximum (in CC1CCCO1) of 327.1 nm, an absorption maximum (in CC(C)=O) of 329.4 nm and an absorption maximum (in CC(C)CC(C)(C)C) of 315 nm. It also gave an absorption maximum (in CC(C)O) of 321.4 nm, an absorption maximum (in CCCCCCCCCCCCCCCC) of 316.9 nm and an absorption maximum (in CCCCCCCCCCCCCCCCCl) of 330 nm. The absorption maximum (in CO) was 324 nm and the absorption maximum (in Cc1ccccc1) was 326.3 nm.
